Structures can show the parent of a compound that is named as a salt.
System: aorta rings
Assay: Vasorelaxant action in vitro (phenylephrine-contracted rabbit aorta rings, organ bath)
Details: Oryctolagus cuniculus; concentration needed to reduce the phenylephrine contraction of rabbit aorta rings by 50%
Description: B-1. Vasorelaxant Action In Vitro
Rabbits are stunned by a blow to the neck and exsanguinated. The aorta is removed, freed from adhering tissue and divided into rings of width 1.5 mm, which are placed individually under prestress into 5 ml organ baths with carbogen-sparged Krebs-Henseleit solution at 37° C. having the following composition (each mM): sodium chloride 119; potassium chloride: 4.8; calcium chloride dihydrate: 1; magnesium sulfate heptahydrate: 1.4; potassium dihydrogenphosphate: 1.2; sodium hydrogencarbonate: 25; glucose: 10. The contractile force is determined with Statham UC2 cells, amplified and digitalized using A/D transducers (DAS-1802 HC, Keithley Instruments Munich), and recorded in parallel on linear recorders. To obtain a contraction, phenylephrine is added to the bath cumulatively in increasing concentration. After several control cycles, the substance to be studied is added in increasing dosage each time in every further run, and the magnitude of the contraction is compared with the magnitude of the contraction attained in the last preceding run. This is used to calculate the concentration needed to reduce the magnitude of the control value by 50% (IC50 value). The standard administration volume is 5 μl; the DMSO content in the bath solution corresponds to 0.1%.

Row | IC50 | SMILES
1 | 475 nM | Nc1nc(-n2nc(Cc3ccccc3F)c3ncccc32)nc2[nH]c(=O)n(Cc3ccc(F)cc3)c12 [Example 91, 6-Amino-7-(4-fluorobenzyl)-2-[3-(2-fluorobenzyl)-1H-pyrazolo[4,3-b]pyridin-1-yl]-7,9-dihydro-8H-purin-8-one]
2 | 199 nM | Nc1nc(-c2nn(Cc3ccccc3F)c3ncccc23)nc2ncn(CC(F)(F)F)c12 [Example 60, 2-[1-(2-Fluorobenzyl)-1H-pyrazolo[3,4-b]pyridin-3-yl]-7-(2,2,2-trifluoroethyl)-7H-purin-6-amine]
3 | 126 nM | Nc1nc(-c2nn(Cc3ccccc3F)c3ncccc23)nc2nccnc12 [Example 52, 2-[1-(2-Fluorobenzyl)-1H-pyrazolo[3,4-b]pyridin-3-yl]pteridin-4-amine]
4 | 424 nM | Nc1nc(-c2nn(Cc3ccccc3F)c3ncccc23)nc2[nH]nnc12 [Example 53, 5-[1-(2-Fluorobenzyl)-1H-pyrazolo[3,4-b]pyridin-3-yl]-3H-[1,2,3]triazolo[4,5-d]pyrimidin-7-amine]
5 | 71 nM | COC(=O)N1CC(=O)Nc2nc(-c3nn(Cc4ccccc4F)c4ncccc34)nc(N)c21 [Example 98, Methyl 4-amino-2-[1-(2-fluorobenzyl)-1H-pyrazolo[3,4-b]pyridin-3-yl]-7-oxo-7,8-dihydropteridine-5(6H)-carboxylate]
6 | 730 nM | Nc1nc(-c2nn(Cc3ccccc3F)c3ncccc23)nc2onc(C(F)(F)F)c12 [Example 15, 6-[1-(2-Fluorobenzyl)-1H-pyrazolo[3,4-b]pyridin-3-yl]-3-(trifluoromethyl)[1,2]oxazolo[5,4-d]pyrimidin-4-amine]
7 | 800 nM | Nc1nc(-c2nn(Cc3ccccc3F)c3ncccc23)nc2[nH]c(=S)[nH]c12 [Example 28, 6-Amino-2-[1-(2-fluorobenzyl)-1H-pyrazolo[3,4-b]pyridin-3-yl]-7,9-dihydro-8H-purine-8-thione]
8 | 464 nM | Fc1cnc2c(c1)c(-c1ncc3cc[nH]c3n1)nn2Cc1ccccc1F [Example 97, 5-Fluoro-1-(2-fluorobenzyl)-3-(7H-pyrrolo[2,3-d]pyrimidin-2-yl)-1H-pyrazolo[3,4-b]pyridine]
9 | 1350 nM | Cn1c(=O)[nH]c2nc(-c3nn(Cc4ccccc4F)c4ncccc34)nc(N3CCC3)c21 [Example 112, 6-(Azetidin-1-yl)-2-[1-(2-fluorobenzyl)-1H-pyrazolo[3,4-b]pyridin-3-yl]-7-methyl-7,9-dihydro-8H-purin-8-one]
10 | 114 nM | Cn1c(=O)[nH]c2nc(-c3nn(Cc4ccccc4F)c4ncccc34)nc(C(C)(C)O)c21 [Example 136, 2-[1-(2-Fluorobenzyl)-1H-pyrazolo[3,4-b]pyridin-3-yl]-6-(2-hydroxypropan-2-yl)-7-methyl-7,9-dihydro-8H-purin-8-one]
11 | 49 nM | CC(C)(O)Cn1c(=O)[nH]c2nc(-c3nn(Cc4ccccc4F)c4ncccc34)nc(N)c21 [Example 2, 6-Amino-2-[1-(2-fluorobenzyl)-1H-pyrazolo[3,4-b]pyridin-3-yl]-7-(2-hydroxy-2-methylpropyl)-7,9-dihydro-8H-purin-8-one]
12 | 139 nM | COC(=O)N1CCNc2nc(-c3nn(Cc4ccccc4F)c4ncccc34)ccc21 [Example 63, Methyl 6-[1-(2-fluorobenzyl)-1H-pyrazolo[3,4-b]pyridin-3-yl]-3,4-dihydropyrido[2,3-b]pyrazine-1(2H)-carboxylate]
13 | 155 nM | Nc1nc(-c2nn(Cc3ccccc3F)c3ncccc23)nc2ccncc12 [Example 84, 2-[1-(2-Fluorobenzyl)-1H-pyrazolo[3,4-b]pyridin-3-yl]pyrido[4,3-d]pyrimidin-4-amine]
14 | 580 nM | O=c1[nH]c2nc(-c3nn(Cc4ccccc4F)c4ncccc34)ncc2n1C1CNC1 [Example 147, 7-(Azetidin-3-yl)-2-[1-(2-fluorobenzyl)-1H-pyrazolo[3,4-b]pyridin-3-yl]-7,9-dihydro-8H-purin-8-one hydrochloride]
15 | 759 nM | Nc1nc(-c2nn(Cc3ccccc3F)c3ncccc23)nc2nc(C(F)(F)F)n(CC(F)(F)F)c12 [Example 61, 2-[1-(2-Fluorobenzyl)-1H-pyrazolo[3,4-b]pyridin-3-yl]-7-(2,2,2-trifluoroethyl)-8-(trifluoromethyl)-7H-purin-6-amine]
16 | 39 nM | Nc1nc(-c2nn(Cc3ccccc3F)c3ncccc23)nc2nsnc12 [Example 57, 5-[1-(2-Fluorobenzyl)-1H-pyrazolo[3,4-b]pyridin-3-yl][1,2,5]thiadiazolo[3,4-d]pyrimidin-7-amine]
17 | 41 nM | O=c1[nH]c2nc(-c3nn(Cc4ccccc4F)c4ncccc34)ncc2n1CC(F)(F)F [Example 45, 2-[1-(2-Fluorobenzyl)-1H-pyrazolo[3,4-b]pyridin-3-yl]-7-(2,2,2-trifluoroethyl)-7,9-dihydro-8H-purin-8-one]
18 | 1300 nM | CCc1nc(=O)c2cnc(-c3nn(Cc4ccccc4F)c4ncccc34)nc2[nH]1 [Example 153, 2-Ethyl-7-[1-(2-fluorobenzyl)-1H-pyrazolo[3,4-b]pyridin-3-yl]pyrimido[4,5-d]pyrimidin-4(1H)-one]
19 | 42 nM | CC(C)(C)Cn1c(=O)[nH]c2nc(-c3nn(Cc4ccccc4F)c4ncccc34)ncc21 [Example 122, 7-(2,2-Dimethylpropyl)-2-[1-(2-fluorobenzyl)-1H-pyrazolo[3,4-b]pyridin-3-yl]-7,9-dihydro-8H-purin-8-one]
20 | 171 nM | O=c1[nH]c2nc(-c3nn(Cc4ccccc4F)c4ncccc34)ncc2n1C1CCN(CC(F)F)CC1 [Example 145, 7-[1-(2,2-Difluoroethyl)piperidin-4-yl]-2-[1-(2-fluorobenzyl)-1H-pyrazolo[3,4-b]pyridin-3-yl]-7,9-dihydro-8H-purin-8-one]
21 | 197 nM | CC1=Nc2c(N)nc(-c3nn(Cc4ccccc4F)c4ncccc34)nc2NCC1 [Example 23, 2-[1-(2-Fluorobenzyl)-1H-pyrazolo[3,4-b]pyridin-3-yl]-6-methyl-8,9-dihydro-7H-pyrimido[4,5-b][1,4]diazepin-4-amine]
22 | 27 nM | CC(C)c1nc2c(N)nc(-c3nn(Cc4ccccc4F)c4ncccc34)nc2[nH]c1=O [Example 83, 4-Amino-2-[1-(2-fluorobenzyl)-1H-pyrazolo[3,4-b]pyridin-3-yl]-6-isopropylpteridin-7(8H)-one]

Reference: patent US9096592B2, “Bicyclic aza heterocycles, and use thereof” (BAYER INTELLECTUAL PROPERTY GMBH, priority 2010, dated 2015)
